Assay results as given in ChEMBL document CHEMBL5291721, “A preclinical secondary pharmacology resource illuminates target-adverse drug reaction associations of marketed drugs” (Nat Commun, 2023).

Experiments:
[1] = biological target: Voltage-dependent N-type calcium channel subunit alpha-1B (Rattus norvegicus, UniProt Q02294); format: functional
[2] = biological target: T1, Androgen receptor (Homo sapiens, UniProt P10275)
T1 sequence (P10275 whole entry): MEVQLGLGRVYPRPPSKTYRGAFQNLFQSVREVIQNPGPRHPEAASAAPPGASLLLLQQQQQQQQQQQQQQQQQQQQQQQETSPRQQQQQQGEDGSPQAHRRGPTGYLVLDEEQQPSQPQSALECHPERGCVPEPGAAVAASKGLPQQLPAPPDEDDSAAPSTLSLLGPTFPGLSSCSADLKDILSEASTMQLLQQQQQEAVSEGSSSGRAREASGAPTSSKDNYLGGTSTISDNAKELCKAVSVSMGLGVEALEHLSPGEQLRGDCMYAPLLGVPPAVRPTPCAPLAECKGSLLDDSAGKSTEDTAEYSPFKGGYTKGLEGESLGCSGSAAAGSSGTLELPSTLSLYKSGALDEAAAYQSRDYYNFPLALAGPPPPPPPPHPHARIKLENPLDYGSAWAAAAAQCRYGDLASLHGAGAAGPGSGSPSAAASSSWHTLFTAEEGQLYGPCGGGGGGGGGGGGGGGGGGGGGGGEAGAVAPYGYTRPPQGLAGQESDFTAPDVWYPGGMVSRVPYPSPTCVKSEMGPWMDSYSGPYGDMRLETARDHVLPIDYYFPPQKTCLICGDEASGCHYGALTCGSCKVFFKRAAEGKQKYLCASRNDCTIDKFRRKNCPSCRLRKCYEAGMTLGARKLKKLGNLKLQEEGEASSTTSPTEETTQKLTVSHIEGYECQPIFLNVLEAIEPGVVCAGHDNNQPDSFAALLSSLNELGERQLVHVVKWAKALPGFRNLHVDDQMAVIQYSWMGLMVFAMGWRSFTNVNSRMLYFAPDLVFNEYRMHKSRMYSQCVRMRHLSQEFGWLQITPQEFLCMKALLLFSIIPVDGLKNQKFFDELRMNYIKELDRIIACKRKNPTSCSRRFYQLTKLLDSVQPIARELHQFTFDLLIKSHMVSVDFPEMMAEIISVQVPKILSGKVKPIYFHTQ

[3] = biological target: T2, Corticotropin-releasing factor receptor 1 (Homo sapiens, UniProt P34998)
T2 sequence (P34998 whole entry): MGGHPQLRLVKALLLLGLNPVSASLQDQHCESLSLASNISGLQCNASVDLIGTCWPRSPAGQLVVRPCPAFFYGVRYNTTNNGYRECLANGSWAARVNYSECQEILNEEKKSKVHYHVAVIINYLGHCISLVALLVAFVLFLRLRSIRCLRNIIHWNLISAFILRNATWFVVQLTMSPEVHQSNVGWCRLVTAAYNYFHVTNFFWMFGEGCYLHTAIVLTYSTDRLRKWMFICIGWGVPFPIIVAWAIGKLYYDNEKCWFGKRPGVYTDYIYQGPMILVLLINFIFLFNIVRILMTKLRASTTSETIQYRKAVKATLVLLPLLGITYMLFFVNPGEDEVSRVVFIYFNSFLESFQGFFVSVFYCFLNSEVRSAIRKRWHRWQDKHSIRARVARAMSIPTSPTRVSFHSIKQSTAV

[4] = biological target: Estrogen receptor beta (Homo sapiens, UniProt Q92731)
[5] = biological target: Mu-type opioid receptor (Homo sapiens, UniProt P35372); test: biochemical; format: functional
[6] = biological target: Gamma-aminobutyric acid receptor subunit alpha-1/alpha-2/beta-2/gamma-2 (Homo sapiens, UniProt P14867+P18507+P47869+P47870); format: functional, cell-based
[7] = biological target: 5-hydroxytryptamine receptor 2B (Homo sapiens, UniProt P41595)
[8] = biological target: D(1A) dopamine receptor (Homo sapiens, UniProt P21728)
[9] = biological target: T3, Alpha-2A adrenergic receptor (Homo sapiens, UniProt P08913)
T3 sequence (P08913 whole entry): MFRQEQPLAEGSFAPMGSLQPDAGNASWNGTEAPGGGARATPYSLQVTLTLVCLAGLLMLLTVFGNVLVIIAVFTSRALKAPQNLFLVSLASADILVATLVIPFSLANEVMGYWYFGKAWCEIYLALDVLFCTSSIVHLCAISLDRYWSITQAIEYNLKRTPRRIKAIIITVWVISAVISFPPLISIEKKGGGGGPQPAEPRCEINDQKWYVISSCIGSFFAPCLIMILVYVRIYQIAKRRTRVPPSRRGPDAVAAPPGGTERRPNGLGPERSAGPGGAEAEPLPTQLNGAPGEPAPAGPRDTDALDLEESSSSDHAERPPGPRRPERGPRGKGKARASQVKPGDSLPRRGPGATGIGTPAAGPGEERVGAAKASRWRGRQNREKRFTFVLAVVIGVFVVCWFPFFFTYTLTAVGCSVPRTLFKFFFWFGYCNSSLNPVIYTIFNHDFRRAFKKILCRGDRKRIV
Note: assay procedure not described here.

Mu-type opioid receptor, sequence (P35372 whole entry): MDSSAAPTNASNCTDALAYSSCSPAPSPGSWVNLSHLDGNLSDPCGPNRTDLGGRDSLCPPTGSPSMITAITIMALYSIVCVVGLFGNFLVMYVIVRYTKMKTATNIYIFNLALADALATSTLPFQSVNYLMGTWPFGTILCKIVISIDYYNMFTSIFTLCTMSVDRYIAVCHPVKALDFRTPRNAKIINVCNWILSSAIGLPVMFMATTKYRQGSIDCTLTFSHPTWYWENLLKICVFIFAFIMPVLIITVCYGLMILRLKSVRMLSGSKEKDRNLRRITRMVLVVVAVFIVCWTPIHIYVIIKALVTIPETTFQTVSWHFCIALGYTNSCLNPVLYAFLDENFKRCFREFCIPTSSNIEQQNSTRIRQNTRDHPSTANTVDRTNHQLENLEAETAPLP
Voltage-dependent N-type calcium channel subunit alpha-1B, sequence (Q02294 whole entry): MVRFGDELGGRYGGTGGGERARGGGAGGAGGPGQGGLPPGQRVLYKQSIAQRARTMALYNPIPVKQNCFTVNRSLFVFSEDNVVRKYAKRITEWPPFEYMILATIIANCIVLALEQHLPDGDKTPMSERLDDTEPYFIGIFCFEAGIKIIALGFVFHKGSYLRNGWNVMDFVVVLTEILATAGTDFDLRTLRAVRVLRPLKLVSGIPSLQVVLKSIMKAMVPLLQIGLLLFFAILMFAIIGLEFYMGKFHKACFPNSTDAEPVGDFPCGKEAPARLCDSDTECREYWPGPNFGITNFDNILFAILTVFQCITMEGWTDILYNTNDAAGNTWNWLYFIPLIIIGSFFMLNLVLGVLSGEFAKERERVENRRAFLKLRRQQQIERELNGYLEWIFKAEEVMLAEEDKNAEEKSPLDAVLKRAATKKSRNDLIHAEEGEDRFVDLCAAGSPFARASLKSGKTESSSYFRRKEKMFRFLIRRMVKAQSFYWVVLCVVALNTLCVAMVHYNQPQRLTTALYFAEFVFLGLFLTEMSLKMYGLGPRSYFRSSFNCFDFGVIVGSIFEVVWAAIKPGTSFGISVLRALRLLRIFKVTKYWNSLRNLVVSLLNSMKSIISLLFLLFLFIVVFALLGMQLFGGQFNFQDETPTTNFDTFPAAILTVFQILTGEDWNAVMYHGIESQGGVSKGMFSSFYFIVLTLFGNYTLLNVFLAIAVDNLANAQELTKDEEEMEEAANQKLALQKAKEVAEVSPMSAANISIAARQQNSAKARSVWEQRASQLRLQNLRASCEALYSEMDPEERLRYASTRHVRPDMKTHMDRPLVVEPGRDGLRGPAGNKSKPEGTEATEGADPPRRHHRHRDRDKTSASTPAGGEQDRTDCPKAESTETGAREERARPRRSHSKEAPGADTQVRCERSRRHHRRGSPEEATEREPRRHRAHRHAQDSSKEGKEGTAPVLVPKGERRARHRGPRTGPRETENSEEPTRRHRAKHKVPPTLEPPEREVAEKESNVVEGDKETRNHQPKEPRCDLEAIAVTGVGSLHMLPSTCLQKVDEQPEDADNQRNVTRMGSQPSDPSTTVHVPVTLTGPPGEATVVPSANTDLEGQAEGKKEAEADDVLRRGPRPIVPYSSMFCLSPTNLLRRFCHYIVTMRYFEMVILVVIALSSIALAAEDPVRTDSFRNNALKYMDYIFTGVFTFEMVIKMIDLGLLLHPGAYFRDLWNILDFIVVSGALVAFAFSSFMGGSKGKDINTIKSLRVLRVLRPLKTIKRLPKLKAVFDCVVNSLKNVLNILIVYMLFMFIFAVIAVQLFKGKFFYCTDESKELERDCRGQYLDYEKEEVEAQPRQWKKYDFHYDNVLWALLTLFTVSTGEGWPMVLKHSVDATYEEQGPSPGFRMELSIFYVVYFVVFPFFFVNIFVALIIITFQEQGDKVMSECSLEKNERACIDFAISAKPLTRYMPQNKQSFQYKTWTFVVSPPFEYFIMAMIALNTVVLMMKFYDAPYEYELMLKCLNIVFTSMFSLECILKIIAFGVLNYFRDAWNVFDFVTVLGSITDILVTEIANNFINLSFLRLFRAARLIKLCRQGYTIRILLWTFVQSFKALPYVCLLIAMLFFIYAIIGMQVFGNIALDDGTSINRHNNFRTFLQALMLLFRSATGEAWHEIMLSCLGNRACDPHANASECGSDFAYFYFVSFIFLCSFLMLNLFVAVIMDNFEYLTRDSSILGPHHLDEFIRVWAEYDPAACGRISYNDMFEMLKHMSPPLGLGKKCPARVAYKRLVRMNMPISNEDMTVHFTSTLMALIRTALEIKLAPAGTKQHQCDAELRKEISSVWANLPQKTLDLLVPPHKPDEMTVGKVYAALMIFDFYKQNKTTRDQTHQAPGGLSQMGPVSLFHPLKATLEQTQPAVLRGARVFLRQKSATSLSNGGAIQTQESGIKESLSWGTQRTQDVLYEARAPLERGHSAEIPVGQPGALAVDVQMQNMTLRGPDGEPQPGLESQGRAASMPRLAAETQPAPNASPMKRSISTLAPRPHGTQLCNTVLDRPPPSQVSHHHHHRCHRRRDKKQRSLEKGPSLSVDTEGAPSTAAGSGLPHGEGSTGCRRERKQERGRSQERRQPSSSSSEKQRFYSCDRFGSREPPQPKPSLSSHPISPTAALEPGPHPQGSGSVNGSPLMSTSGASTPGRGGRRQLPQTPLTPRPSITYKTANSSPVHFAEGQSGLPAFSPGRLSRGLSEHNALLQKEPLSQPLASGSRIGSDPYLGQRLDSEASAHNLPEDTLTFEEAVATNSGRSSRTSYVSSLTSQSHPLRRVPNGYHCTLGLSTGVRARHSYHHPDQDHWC
5-hydroxytryptamine receptor 2B, sequence (P41595 whole entry): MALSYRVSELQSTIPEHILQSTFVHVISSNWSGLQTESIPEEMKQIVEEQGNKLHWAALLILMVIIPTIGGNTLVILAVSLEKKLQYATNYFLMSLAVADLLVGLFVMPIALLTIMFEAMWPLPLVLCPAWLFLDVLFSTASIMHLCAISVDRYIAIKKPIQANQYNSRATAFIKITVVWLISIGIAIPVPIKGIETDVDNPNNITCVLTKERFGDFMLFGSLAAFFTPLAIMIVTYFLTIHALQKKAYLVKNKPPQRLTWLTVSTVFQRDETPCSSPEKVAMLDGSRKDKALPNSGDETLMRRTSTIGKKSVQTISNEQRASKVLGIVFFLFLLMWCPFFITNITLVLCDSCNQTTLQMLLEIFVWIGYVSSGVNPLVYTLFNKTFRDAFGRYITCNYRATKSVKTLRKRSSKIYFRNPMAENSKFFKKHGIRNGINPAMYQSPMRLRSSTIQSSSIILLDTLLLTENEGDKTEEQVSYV
Estrogen receptor beta, sequence (Q92731 whole entry): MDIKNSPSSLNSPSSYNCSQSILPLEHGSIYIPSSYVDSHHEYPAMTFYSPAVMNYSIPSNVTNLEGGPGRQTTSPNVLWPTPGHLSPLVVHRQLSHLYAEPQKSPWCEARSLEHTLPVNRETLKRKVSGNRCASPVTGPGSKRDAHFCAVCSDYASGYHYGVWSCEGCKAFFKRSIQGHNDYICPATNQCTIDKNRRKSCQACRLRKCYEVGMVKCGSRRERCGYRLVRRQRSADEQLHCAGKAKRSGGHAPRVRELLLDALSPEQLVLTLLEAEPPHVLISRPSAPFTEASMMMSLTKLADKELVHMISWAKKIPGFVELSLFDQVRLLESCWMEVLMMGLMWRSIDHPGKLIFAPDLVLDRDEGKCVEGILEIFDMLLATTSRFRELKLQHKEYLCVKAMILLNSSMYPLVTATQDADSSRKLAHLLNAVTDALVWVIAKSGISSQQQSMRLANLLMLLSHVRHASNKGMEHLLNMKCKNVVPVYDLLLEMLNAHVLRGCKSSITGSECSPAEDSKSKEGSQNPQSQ
D(1A) dopamine receptor, sequence (P21728 whole entry): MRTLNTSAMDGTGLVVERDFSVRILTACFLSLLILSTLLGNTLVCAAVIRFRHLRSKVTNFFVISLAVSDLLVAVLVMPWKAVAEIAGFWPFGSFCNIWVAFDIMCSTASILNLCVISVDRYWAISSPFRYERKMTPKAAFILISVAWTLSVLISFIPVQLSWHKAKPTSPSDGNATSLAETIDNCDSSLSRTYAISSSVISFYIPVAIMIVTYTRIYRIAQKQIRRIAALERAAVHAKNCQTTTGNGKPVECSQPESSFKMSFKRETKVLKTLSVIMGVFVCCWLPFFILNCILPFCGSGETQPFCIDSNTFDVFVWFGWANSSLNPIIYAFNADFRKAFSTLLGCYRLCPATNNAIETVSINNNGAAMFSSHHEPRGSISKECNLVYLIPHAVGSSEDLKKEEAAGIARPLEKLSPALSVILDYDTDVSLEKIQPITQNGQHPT

SMILES: CO[C@H]1C[C@@H]2CC[C@@H](C)[C@@](O)(O2)C(=O)C(=O)N2CCCC[C@H]2C(=O)O[C@H]([C@H](C)C[C@@H]2CC[C@@H](O)[C@H](OC)C2)CC(=O)[C@H](C)/C=C(\C)[C@@H](O)[C@@H](OC)C(=O)[C@H](C)C[C@H](C)/C=C/C=C/C=C/1C [SIROLIMUS]
- AC50 [1]: > 10 µM
- AC50 [2]: > 30 µM
- AC50 [3]: > 30 µM
- AC50 [4]: > 30 µM

SMILES: O=C(Cc1ccc(-c2ccccc2)cc1)Nc1ccccn1 [DIFENPIRAMIDE]
- AC50 [2]: > 30 µM
- AC50 [5]: > 30 µM
- AC50 [6]: > 30 µM

SMILES: CN1C(C(=O)Nc2ccccn2)=C(O)c2sc(Cl)cc2S1(=O)=O [LORNOXICAM]
- AC50 [7]: > 10 µM

SMILES: Cc1cn([C@H]2C=C[C@@H](CO)O2)c(=O)[nH]c1=O [STAVUDINE]
- AC50 [1]: > 10 µM
- AC50 [3]: > 30 µM
- AC50 [7]: > 10 µM
- AC50 [8]: > 10 µM
- AC50 [4]: > 30 µM
- AC50 [9]: > 10 µM

SMILES: CC[N+]1(C)[C@@H]2CC(OC(=O)[C@H](CO)c3ccccc3)C[C@H]1[C@@H]1O[C@@H]12 (some centres undefined) [OXITROPIUM]
- AC50 [2]: > 30 µM

SMILES: CCC(C)n1ncn(-c2ccc(N3CCN(c4ccc(OCC5COC(Cn6cncn6)(c6ccc(Cl)cc6Cl)O5)cc4)CC3)cc2)c1=O (centres undefined) [ITRACONAZOLE]
- AC50 [1]: > 10 µM
- AC50 [5]: > 30 µM
- AC50 [3]: > 30 µM
- AC50 [7]: > 10 µM
- AC50 [8]: > 10 µM
- AC50 [4]: > 30 µM
- AC50 [9]: > 10 µM

SMILES: Cc1ccc(-c2cc(C(F)(F)F)nn2-c2ccc(S(N)(=O)=O)cc2)cc1 [CELECOXIB]
- AC50 [1]: > 10 µM
- AC50 [3]: > 30 µM
- AC50 [7]: > 10 µM
- AC50 [8]: > 10 µM
- AC50 [9]: > 10 µM

SMILES: Clc1ccc2nsnc2c1NC1=NCCN1 [TIZANIDINE]
- AC50 [1]: > 10 µM
- AC50 [5]: > 30 µM
- AC50 [3]: > 30 µM
- AC50 [7]: > 10 µM
- AC50 [8]: > 10 µM
- AC50 [4]: > 30 µM

SMILES: C=CCc1ccccc1OCC(O)CNC(C)C (centres undefined) [ALPRENOLOL]
- AC50 [2]: > 0.3 µM
- AC50 [5]: > 30 µM

SMILES: CS(=O)(=O)c1ccc(C2=C(c3ccccc3)C(=O)OC2)cc1 [ROFECOXIB]
- AC50 [1]: > 10 µM
- AC50 [5]: > 30 µM
- AC50 [3]: > 30 µM
- AC50 [7]: > 10 µM
- AC50 [8]: > 10 µM
- AC50 [4]: > 30 µM
- AC50 [9]: > 10 µM

SMILES: CCC(=O)NCC[C@@H]1CCc2ccc3c(c21)CCO3 [RAMELTEON]
- AC50 [2]: > 30 µM

SMILES: OCCN1C[C@H](O)[C@@H](O)[C@H](O)[C@H]1CO [MIGLITOL]
- AC50 [2]: > 30 µM

SMILES: O=P1(NCCCl)OCCCN1CCCl (centres undefined) [IFOSFAMIDE]
- AC50 [5]: > 30 µM

SMILES: O=C(O[C@H]1C[C@H]2CC[C@@H](C1)[N+]21CCCC1)C(O)(c1ccccc1)c1ccccc1 [TROSPIUM]
- AC50 [5]: > 30 µM

SMILES: C[C@]12CCC(=O)C=C1CC[C@@H]1[C@@H]2[C@@H](O)C[C@@]2(C)[C@H]1CC[C@]2(O)C(=O)CO [HYDROCORTISONE]
- AC50 [1]: > 10 µM
- AC50 [3]: > 30 µM
- AC50 [7]: > 10 µM
- AC50 [8]: > 10 µM
- AC50 [4]: > 30 µM
- AC50 [9]: > 10 µM

SMILES: CN(C)/N=N/c1[nH]cnc1C(N)=O [DACARBAZINE]
- AC50 [5]: > 30 µM

SMILES: CC[C@H]1OC(=O)[C@H](C)[C@@H](O[C@H]2C[C@@](C)(OC)[C@@H](O)[C@H](C)O2)[C@H](C)[C@@H](O[C@@H]2O[C@H](C)C[C@H](N(C)C)[C@H]2O)[C@](C)(O)C[C@@H](C)CN(C)[C@H](C)[C@@H](O)[C@]1(C)O [AZITHROMYCIN]
- AC50 [1]: > 10 µM
- AC50 [3]: > 30 µM
- AC50 [7]: > 10 µM
- AC50 [8]: > 10 µM
- AC50 [4]: > 30 µM
- AC50 [9]: > 10 µM

SMILES: CC[C@H]1[C@@H](O)[C@@H]2[C@H](CC[C@]3(C)[C@@H]([C@H](C)CCC(=O)O)CC[C@@H]23)[C@@]2(C)CC[C@@H](O)C[C@@H]12 [OBETICHOLIC ACID]
- AC50 [2]: > 30 µM
- AC50 [5]: > 30 µM

SMILES: CN(C)[C@@H](c1cccc(O)c1)[C@H]1CCCC[C@H]1O [CIRAMADOL]
- AC50 [2]: > 30 µM

SMILES: CCCCN1C[C@H](O)[C@@H](O)[C@H](O)[C@H]1CO
- AC50 [5]: > 30 µM

SMILES: CN(C)S(=O)(=O)c1ccc2c(c1)N(CCCN1CCC(CCO)CC1)c1ccccc1S2 [PIPOTIAZINE]
- AC50 [2]: > 30 µM
